In article PMC6055880, “Virtual Fragment Screening Identification of a Quinoline‐5,8‐dicarboxylic Acid Derivative as a Selective JMJD3 Inhibitor” (Chemmedchem, 2018):
One block for each molecule: values may come before it.

What was measured:
Type in all cases: biochemical
FBXL11 = biological target: T1, FBXL11 (Homo sapiens, UniProt Q9Y2K7); test: AlphaScreen FBXL11 demethylase inhibition (selectivity)
T1 construct: purchased BPS Bioscience (contract assay)
T1 sequence (Q9Y2K7 1-1162): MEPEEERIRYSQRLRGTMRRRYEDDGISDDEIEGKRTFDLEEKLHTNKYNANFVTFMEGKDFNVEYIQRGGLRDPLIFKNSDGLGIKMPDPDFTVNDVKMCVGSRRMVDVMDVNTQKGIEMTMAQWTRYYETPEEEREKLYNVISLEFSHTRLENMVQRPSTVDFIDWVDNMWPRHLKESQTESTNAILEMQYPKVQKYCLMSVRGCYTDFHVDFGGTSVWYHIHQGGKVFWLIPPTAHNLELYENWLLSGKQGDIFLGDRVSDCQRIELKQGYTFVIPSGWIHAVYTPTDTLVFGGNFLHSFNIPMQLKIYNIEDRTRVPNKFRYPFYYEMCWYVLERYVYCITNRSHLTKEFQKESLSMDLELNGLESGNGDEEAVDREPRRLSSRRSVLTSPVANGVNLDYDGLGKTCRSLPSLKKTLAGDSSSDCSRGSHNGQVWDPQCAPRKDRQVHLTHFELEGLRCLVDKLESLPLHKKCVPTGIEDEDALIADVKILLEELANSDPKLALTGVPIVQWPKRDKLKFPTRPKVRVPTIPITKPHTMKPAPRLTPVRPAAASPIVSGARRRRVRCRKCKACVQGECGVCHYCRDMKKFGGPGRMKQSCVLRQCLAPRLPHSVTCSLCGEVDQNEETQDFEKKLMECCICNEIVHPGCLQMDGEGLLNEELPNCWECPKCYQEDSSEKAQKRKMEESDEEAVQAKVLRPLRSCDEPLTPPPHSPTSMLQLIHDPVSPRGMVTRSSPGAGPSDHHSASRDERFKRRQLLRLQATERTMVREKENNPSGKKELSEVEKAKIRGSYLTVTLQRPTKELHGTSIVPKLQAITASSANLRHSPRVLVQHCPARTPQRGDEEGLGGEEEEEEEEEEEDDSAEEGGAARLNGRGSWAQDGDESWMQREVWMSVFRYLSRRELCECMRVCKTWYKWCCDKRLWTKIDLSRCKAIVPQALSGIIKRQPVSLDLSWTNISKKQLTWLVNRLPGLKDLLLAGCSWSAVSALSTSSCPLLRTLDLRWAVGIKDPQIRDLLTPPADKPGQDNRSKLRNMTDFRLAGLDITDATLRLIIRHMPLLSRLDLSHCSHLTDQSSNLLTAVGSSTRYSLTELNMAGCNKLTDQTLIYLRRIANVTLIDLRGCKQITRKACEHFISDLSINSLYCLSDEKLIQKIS
Text: (§1) Compounds 4 and 5 also appreciably decrease enzyme activity by 65 % and 60 %, respectively. […] We proceeded to investigate the inhibitory activity of 3 further by evaluation of its IC50 value against JMJD3. The results highlighted a low micromolar activity of compound 3 against JMJD3 (Table 1). […] Similar outcomes were obtained for 3 versus JMJD2C and JMJD2D (Table 1). […] Relative to JMJD1A and FBXL11, we found a decrease in enzymatic activity (Table 1) toward Jarid1A and Jarid1B of 33 % and 26 % by 3.
(§2) 2,4-pyridine dicarboxylic acid (2,4-PC) is purchased from Acros Organics (New Jersey, […]
(§3) GSK J1 is purchased from Sigma Aldrich (Italy, Catalog number SML0709). […]
(§4) After enzymatic reactions, 5 µl of anti-Mouse Acceptor beads (PerkinElmer, diluted 1:500 with 1x detection buffer) or 5 µl of anti-Rabbit Acceptor beads (PerkinElmer, diluted 1:500 with 1x detection buffer) and 5 µl of Primary antibody (BPS, diluted 1:200 with 1x detection buffer) were added to the reaction mix. […] In 30 minutes, the samples were measured in AlphaScreen microplate reader (EnSpire Alpha 2390 Multilabel Reader, PerkinElmer). […]
(§5) Enzyme activity assays were performed in duplicates at each concentration. The A-screen intensity data were analyzed and compared. […] The IC 50 value was determined by the concentration causing a half -maximal percent activity.

JMJD3 = JMJD3 (Homo sapiens, UniProt O15054); test: AlphaScreen JMJD3 demethylase inhibition; conditions: for inhibition at 25 µM: compound at 25 μM
Text: as §1, §2
GSK J1 is purchased from Sigma Aldrich (Italy, Catalog number SML0709).
JIB-04 is purchased from Sigma-Aldrich (St. Louis, MO, Catalog number SML0808).
AlphaLISA anti-mIgG acceptor beads from PerkinElmer (Santa Clara, CA, Catalog number […]
AlphaLISA anti-rIgG acceptor beads from PerkinElmer (Santa Clara, CA, Catalog number […]
AlphaScreen Streptavidin-conjaugated donor beads from PerkinElmer (Santa Clara, CA, […]
Primary antibody 2 from BPS (Catalog number 52140B1).
Primary antibody 5 from BPS (Catalog number 52140E).
Primary antibody 6 from BPS (Catalog number 52140F).
Primary antibody 16-2 from BPS (Catalog number 52140P2).
Primary antibody 17-3 from BPS(Catalog number 52140Q3). […]
Biotinylated histone H3 peptide substrate (UTX and JMJD3) (BPS and Anaspec). […]
JMJD3 Assay Buffer from BPS. […]
4x Detection buffer from BPS (Catalog number 52301).
All of the enzymatic reactions were conducted at room temperature for 60 minutes in a 10 µl mixture containing assay buffer, histone H3 peptide substrate, demethylase enzyme, and the test compound. These 10 µl reactions were carried out in wells of 384-well Optiplate (PerkinElmer). The serial dilution of the compounds was first performed in 100% DMSO with the highest concentration at 1 mM. Each intermediate compound dilution (in 100% DMSO) will then get directly diluted 30x fold into assay buffer for 3.3x conc (DMSO). Enzyme only and blank only wells have a final DMSO concentration of 1%. From this intermediate step, 3 µl of compound is added to 4 µl of demethylase enzyme dilution is incubated for 30 minutes at room temperature. After this incubation, 3 µl of peptide substrate is added. The final DMSO concentration is 1%.
After enzymatic reactions, 5 µl of anti-Mouse Acceptor beads (PerkinElmer, diluted 1:500 with 1x detection buffer) or 5 µl of anti-Rabbit Acceptor beads (PerkinElmer, diluted 1:500 with 1x detection buffer) and 5 µl of Primary antibody (BPS, diluted 1:200 with 1x detection buffer) were added to the reaction mix. After brief shaking, plate was incubated for 30 minutes. Finally, 10 µl of AlphaScreen Streptavidin-conjugated donor beads (Perkin, diluted 1:125 with 1x detection buffer) were added. In 30 minutes, the samples were measured in AlphaScreen microplate reader (EnSpire Alpha 2390 Multilabel Reader, PerkinElmer).
For JMJD3, Donor and acceptor beads and primary antibody were incubated for 1 h,[9] for the remaining enzymes for 30’.
5 µL of AlphaScreen assay buffer containing EDTA (30 mM) and NaCl (800 mM) to stop the […]
Except for JMJD3, the experiments were performed by BPS Bioscience.
Enzyme activity assays were performed in duplicates at each concentration. The A-screen intensity data were analyzed and compared. In the absence of the compound, the intensity in each data set was defined as 100% activity. In the absence of enzyme, the intensity in each data set was defined as 0% activity. The values of % activity versus a series of compound concentrations were then plotted using non-linear regression analysis of Sigmoidal dose-response curve generated with the equation Y=B+(T-B)/1+10((LogEC50-X)×Hill Slope), where Y=percent activity, B=minimum percent activity, T=maximum percent activity, X= l ogarithm of compound and Hill Slope=slope factor or Hill coefficient. The IC 50 value was determined by the concentration causing a half -maximal percent activity.

JMJD1A = biological target: T2, JMJD1A (Homo sapiens, UniProt Q9Y4C1); test: AlphaScreen JMJD1A demethylase inhibition (selectivity)
T2 construct: purchased BPS Bioscience (contract assay)
T2 sequence (Q9Y4C1 1-1321): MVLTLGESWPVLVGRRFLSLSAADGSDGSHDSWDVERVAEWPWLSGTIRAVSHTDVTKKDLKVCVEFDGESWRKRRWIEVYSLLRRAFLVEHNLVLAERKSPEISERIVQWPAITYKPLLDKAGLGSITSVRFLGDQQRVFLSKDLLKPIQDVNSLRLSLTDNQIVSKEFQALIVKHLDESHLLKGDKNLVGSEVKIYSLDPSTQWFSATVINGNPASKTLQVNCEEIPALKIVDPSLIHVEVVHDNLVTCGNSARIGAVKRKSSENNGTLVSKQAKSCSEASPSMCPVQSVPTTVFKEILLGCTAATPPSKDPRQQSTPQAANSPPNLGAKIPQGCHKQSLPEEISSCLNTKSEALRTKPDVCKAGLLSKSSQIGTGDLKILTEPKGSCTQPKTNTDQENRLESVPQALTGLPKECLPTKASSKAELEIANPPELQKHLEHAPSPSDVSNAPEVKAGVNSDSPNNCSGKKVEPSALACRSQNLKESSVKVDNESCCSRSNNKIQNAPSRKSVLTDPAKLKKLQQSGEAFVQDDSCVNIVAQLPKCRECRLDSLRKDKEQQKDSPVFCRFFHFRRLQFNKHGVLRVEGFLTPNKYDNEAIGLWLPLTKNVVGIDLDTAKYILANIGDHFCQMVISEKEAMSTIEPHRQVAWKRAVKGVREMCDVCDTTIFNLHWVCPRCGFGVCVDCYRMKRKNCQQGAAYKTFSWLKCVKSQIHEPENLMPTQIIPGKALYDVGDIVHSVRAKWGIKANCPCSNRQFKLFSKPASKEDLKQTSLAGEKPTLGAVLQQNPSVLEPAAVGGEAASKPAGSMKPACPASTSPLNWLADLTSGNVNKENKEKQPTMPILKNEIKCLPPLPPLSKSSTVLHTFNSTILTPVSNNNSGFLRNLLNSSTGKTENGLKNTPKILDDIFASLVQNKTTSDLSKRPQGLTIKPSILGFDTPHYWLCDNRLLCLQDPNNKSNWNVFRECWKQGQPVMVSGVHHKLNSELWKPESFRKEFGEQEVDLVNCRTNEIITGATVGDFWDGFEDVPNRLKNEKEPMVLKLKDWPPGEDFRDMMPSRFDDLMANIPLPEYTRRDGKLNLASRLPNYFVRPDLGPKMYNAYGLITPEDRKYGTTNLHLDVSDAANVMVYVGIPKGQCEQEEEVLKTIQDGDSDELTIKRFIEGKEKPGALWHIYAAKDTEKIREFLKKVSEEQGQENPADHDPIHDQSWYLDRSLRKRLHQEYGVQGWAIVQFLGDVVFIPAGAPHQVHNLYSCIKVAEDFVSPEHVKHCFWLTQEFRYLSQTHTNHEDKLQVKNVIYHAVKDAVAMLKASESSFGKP
Text: as §1, §2, §3, §4, §5

Jarid1A = biological target: T3, Jarid1A (Homo sapiens, UniProt P29375); test: AlphaScreen Jarid1A demethylase inhibition (selectivity)
T3 construct: purchased BPS Bioscience (contract assay)
Text: as §1, §2, §3, §4, §5

UTX = biological target: T4, UTX (Homo sapiens, UniProt O15550); test: AlphaScreen UTX demethylase inhibition (selectivity); conditions: at 10 μM; NI = no significant inhibition at 10 μM
T4 construct: purchased BPS Bioscience (contract assay)
Text: as §1, §2, §3, §4, §5

Jarid1B = biological target: T5, Jarid1B (Homo sapiens, UniProt Q9UGL1); test: AlphaScreen Jarid1B demethylase inhibition (selectivity)
T5 construct: purchased BPS Bioscience (contract assay)
Text: as §1, §2, §3, §4, §5

JMJD3, sequence (O15054 whole entry): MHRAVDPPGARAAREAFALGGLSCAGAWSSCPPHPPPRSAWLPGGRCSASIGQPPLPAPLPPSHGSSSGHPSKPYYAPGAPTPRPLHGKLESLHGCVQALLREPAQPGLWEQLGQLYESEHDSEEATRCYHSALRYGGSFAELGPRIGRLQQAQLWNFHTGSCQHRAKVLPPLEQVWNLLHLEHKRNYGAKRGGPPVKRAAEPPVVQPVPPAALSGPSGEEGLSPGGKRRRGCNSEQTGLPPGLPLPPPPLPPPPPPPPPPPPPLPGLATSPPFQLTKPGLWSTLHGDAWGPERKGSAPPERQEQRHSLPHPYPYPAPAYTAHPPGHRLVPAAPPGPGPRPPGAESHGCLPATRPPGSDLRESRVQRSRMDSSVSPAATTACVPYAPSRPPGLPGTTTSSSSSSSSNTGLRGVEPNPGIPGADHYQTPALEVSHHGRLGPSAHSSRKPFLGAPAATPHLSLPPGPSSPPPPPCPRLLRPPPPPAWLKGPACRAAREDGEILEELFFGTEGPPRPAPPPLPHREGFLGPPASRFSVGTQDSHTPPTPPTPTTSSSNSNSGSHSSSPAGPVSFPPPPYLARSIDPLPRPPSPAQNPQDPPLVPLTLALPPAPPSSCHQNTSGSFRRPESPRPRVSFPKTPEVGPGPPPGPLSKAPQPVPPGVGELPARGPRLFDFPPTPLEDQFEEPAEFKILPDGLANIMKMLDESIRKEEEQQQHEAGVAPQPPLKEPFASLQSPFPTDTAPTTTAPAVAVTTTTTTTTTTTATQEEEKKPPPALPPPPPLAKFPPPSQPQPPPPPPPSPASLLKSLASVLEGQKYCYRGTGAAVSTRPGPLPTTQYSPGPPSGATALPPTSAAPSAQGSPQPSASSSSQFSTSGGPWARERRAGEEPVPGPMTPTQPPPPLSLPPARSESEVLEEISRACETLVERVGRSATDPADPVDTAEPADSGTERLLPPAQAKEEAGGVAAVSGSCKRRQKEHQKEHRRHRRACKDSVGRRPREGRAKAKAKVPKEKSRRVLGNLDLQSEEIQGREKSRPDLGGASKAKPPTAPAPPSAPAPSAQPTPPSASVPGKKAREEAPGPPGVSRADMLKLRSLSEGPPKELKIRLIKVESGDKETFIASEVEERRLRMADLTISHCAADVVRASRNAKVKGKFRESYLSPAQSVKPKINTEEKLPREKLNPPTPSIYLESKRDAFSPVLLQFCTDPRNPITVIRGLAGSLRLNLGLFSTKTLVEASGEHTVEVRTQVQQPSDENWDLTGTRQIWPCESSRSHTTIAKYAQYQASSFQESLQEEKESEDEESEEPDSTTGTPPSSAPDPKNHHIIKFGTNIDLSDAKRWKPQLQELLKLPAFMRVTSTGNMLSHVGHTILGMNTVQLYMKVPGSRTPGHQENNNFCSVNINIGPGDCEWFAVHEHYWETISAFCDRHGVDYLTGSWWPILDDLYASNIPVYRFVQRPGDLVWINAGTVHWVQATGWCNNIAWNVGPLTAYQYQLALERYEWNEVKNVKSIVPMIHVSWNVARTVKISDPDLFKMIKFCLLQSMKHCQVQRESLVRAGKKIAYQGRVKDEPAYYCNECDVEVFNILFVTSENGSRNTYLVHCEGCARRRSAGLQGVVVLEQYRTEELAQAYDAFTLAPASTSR
T3 sequence (P29375 whole entry): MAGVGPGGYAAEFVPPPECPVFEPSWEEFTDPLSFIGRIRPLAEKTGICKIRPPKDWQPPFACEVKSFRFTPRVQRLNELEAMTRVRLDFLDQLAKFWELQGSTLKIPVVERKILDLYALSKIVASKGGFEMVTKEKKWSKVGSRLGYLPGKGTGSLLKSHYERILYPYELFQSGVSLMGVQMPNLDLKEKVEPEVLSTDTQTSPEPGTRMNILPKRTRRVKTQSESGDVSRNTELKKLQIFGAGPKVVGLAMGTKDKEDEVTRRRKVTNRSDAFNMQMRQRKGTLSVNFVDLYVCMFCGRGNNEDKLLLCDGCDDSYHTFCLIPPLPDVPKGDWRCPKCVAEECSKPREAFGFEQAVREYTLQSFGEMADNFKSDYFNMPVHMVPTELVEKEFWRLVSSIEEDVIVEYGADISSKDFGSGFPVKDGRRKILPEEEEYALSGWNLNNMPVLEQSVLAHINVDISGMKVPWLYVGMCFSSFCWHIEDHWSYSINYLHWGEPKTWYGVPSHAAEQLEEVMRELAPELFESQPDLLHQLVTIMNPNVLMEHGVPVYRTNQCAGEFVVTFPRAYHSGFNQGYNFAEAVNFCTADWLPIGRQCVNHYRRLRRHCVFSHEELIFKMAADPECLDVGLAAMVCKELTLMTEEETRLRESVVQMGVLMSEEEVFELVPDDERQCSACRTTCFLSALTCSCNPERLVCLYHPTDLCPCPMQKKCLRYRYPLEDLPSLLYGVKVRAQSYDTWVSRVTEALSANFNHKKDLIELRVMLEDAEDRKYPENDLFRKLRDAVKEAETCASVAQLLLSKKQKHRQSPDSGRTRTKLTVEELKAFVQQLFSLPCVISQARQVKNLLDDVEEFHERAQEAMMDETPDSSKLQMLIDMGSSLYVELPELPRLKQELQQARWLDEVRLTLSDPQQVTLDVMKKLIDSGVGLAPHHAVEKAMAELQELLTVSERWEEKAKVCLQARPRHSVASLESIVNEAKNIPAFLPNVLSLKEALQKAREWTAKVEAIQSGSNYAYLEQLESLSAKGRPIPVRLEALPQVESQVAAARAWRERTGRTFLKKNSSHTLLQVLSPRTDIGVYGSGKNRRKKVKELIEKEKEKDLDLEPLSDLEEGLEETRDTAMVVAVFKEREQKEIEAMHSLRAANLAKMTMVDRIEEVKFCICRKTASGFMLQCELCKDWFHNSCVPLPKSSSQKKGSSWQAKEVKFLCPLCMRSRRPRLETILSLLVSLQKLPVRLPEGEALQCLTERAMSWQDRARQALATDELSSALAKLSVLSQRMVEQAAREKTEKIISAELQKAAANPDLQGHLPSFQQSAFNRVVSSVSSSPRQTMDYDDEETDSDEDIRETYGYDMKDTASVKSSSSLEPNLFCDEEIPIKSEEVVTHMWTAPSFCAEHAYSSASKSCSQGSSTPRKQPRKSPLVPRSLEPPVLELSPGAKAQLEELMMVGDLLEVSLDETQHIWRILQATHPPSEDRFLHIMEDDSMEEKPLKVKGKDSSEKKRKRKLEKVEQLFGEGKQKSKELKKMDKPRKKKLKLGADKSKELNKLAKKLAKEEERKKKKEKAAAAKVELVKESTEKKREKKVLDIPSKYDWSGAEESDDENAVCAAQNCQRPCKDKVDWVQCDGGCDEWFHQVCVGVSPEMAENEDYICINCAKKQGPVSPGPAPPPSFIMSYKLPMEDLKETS
T5 sequence (Q9UGL1 whole entry): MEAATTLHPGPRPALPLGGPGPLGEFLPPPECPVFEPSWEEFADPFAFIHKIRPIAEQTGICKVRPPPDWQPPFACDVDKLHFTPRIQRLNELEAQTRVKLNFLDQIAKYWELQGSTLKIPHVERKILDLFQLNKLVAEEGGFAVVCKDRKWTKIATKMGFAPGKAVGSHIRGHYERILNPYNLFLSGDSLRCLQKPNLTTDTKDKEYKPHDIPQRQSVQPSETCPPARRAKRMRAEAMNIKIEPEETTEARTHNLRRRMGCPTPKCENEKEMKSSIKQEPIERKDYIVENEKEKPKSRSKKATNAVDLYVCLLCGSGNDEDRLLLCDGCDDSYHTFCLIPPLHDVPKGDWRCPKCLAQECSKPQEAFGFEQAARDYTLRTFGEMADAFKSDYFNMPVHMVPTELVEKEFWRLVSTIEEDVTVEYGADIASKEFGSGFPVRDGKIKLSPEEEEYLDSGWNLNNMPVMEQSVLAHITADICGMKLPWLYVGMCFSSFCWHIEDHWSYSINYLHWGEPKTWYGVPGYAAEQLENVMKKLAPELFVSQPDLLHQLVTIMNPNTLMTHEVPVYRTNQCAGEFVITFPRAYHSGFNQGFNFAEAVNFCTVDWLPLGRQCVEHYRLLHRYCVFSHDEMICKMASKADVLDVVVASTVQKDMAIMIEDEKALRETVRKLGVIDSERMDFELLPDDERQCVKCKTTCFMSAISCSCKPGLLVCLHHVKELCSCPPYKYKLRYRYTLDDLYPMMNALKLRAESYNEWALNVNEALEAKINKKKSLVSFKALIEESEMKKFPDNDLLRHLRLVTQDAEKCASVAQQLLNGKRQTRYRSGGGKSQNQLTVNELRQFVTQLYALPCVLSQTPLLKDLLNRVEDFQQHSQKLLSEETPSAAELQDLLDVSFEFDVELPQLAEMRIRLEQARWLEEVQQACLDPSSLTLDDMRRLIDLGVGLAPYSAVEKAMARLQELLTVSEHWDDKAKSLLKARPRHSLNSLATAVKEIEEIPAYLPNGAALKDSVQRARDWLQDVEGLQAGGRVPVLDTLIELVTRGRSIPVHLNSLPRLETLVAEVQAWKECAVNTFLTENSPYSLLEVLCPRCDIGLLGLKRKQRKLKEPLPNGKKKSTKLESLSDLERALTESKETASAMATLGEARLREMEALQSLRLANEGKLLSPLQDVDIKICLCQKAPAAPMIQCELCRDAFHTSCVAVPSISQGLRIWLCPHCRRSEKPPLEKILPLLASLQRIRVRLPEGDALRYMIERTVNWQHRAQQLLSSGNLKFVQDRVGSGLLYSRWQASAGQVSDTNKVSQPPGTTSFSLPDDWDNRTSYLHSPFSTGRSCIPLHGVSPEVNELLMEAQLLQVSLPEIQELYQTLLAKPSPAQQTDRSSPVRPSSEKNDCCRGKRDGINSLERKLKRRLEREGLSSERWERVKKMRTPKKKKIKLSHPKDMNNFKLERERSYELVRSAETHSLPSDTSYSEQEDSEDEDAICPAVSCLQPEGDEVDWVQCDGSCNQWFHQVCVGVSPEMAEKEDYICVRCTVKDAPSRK

inhibition at 10 µM (FBXL11; at 10 μM, read-out: Percent Inhibition FBXL11): 15%
IC50 (FBXL11; footnote b of Table 1): > 10 µM
inhibition at 25 µM (JMJD3): 90%
IC50 (JMJD3; read-out: IC50±SEM JMJD3): 1.52 ± 0.5 µM
inhibition at 10 µM (JMJD1A; at 10 μM, read-out: Percent Inhibition JMJD1A): 12%
IC50 (JMJD1A; footnote b of Table 1): > 10 µM
inhibition at 10 µM (Jarid1A; at 10 μM, read-out: Percent Inhibition Jarid1A): 33%
IC50 (Jarid1A; footnote b of Table 1): > 10 µM
Percent Inhibition UTX (UTX): no significant inhibition
inhibition at 10 µM (Jarid1B; at 10 μM, read-out: Percent Inhibition Jarid1B): 26%
IC50 (Jarid1B; footnote b of Table 1): > 10 µM
SMILES: COc1ncc(-c2cnc3c(C(=O)O)ccc(C(=O)O)c3c2)c(OC)n1 [Compound 3, 3‐(2,4‐dimethoxypyrimidin‐5‐yl)quinoline‐5,8‐dicarboxylic acid]

inhibition at 25 µM (JMJD3): 65%
SMILES: NS(=O)(=O)c1ccc(-c2cnc3c(C(=O)O)ccc(C(=O)O)c3c2)cc1 [Compound 4]

inhibition at 25 µM (JMJD3): 60%
SMILES: O=C(O)c1ccc(-c2cnc3c(C(=O)O)ccc(C(=O)O)c3c2)s1 [Compound 5]

inhibition at 25 µM (JMJD3): ~25%
SMILES: COc1cc(-c2cnc3c(C(=O)O)ccc(C(=O)O)c3c2)c(OC)nn1 [Compound 6]

inhibition at 25 µM (JMJD3): ~12%
SMILES: COc1cc(-c2cnc3c(C(=O)O)ccc(C(=O)O)c3c2)ccc1F [Compound 7]
